Laboratory results reported in ChEMBL document CHEMBL3992508, “Synthesis and bioactivity investigation of quinone-based dimeric cationic triazolium amphiphiles selective against resistant fungal and bacterial pathogens” (Eur J Med Chem, 2017).
Converted amounts (≈) assume the structure as drawn. The source made the active and inactive calls. The calls are words filed in the database; no cut-off is given here.

Columns and labels:
[1] = test system: Staphylococcus aureus; experiment: Antibacterial activity against methicillin-resistant Staphylococcus aureus ATCC 33591; format: functional
[2] = test system: Staphylococcus aureus; experiment: Antibacterial activity against Staphylococcus aureus ATCC 25923; format: functional
[3] = test system: Enterococcus faecalis; experiment: Antibacterial activity against vancomycin-resistant Enterococcus faecalis ATCC 51299; format: functional
[4] = test system: Escherichia coli; experiment: Antibacterial activity against Escherichia coli ATCC 25922; format: functional
[5] = test system: Pseudomonas aeruginosa; experiment: Antibacterial activity against Pseudomonas aeruginosa ATCC 27853; format: functional
[6] = test system: Klebsiella pneumoniae; experiment: Antibacterial activity against Klebsiella pneumoniae ATCC 13883; format: functional
[7] = test system: Aspergillus flavus; experiment: Antifungal activity against Aspergillus flavus; format: functional
[8] = test system: SK-OV-3; experiment: Cytotoxicity against human SKOV3 cells at 10 ug/ml after 48 hrs by MTT assay; format: cell-based; details: sk-ov-3, 48 h
[9] = test system: SK-OV-3; experiment: Cytotoxicity against human SKOV3 cells after 48 hrs; format: cell-based; details: SK-OV-3, 48 h
[10] = test system: Candida albicans; experiment: Antifungal activity against azole-susceptible Candida albicans MYA2876; format: functional
[11] = test system: Candida albicans; experiment: Antifungal activity against azole-resistant Candida albicans ATCC 64124; format: functional
[12] = test system: Cryptococcus neoformans; experiment: Antifungal activity against Cryptococcus neoformans; format: functional
[13] = test system: Rhodotorula mucilaginosa; experiment: Antifungal activity against Rhodotorula pilimanae; format: functional
[14] = test system: Klebsiella pneumoniae; experiment: Antibacterial activity against Klebsiella pneumoniae ATCC 13883 at 5 mg/ml; format: functional
[15] = test system: Staphylococcus aureus; experiment: Antibacterial activity against methicillin-resistant Staphylococcus aureus ATCC 33591 at 5 mg/ml; format: functional
[16] = test system: Pseudomonas aeruginosa; experiment: Antibacterial activity against Pseudomonas aeruginosa ATCC 27853 at 5 mg/ml; format: functional
[17] = test system: Enterococcus faecalis; experiment: Antibacterial activity against vancomycin-resistant Enterococcus faecalis ATCC 51299 at 5 mg/ml; format: functional
[18] = test system: Escherichia coli; experiment: Antibacterial activity against Escherichia coli ATCC 25922 at 5 mg/ml; format: functional
[19] = test system: Staphylococcus aureus; experiment: Antibacterial activity against Staphylococcus aureus ATCC 25923 at 5 mg/ml; format: functional
[20] = test system: Fusarium graminearum; experiment: Antifungal activity against Fusarium graminearum B4-A5 assessed as cell membrane disruption at MIC after 1 hr by Sytox Green dye based fluorescence assay; format: functional
[21] = test system: Candida albicans; experiment: Antifungal activity against Candida albicans ATCC 64124 assessed as cell membrane disruption at MIC after 1 hr by Sytox Green dye based fluorescence assay; format: functional

Compound: NCC[C@H](O)C(=O)N[C@@H]1C[C@H](N)[C@@H](O[C@H]2O[C@H](CN)[C@@H](O)[C@H](O)[C@H]2O)[C@H](O)[C@H]1O[C@H]1O[C@H](CO)[C@@H](O)[C@H](N)[C@H]1O [AMIKACIN]
- MIC [1]: 16 µg/mL (≈ 27.3 µM)
- MIC [2]: 0.5 µg/mL (≈ 0.854 µM)
- MIC [3]: > 250 µg/mL
- MIC [4]: 1 µg/mL (≈ 1.71 µM)
- MIC [5]: 1 µg/mL (≈ 1.71 µM)
- MIC [6]: 1 µg/mL (≈ 1.71 µM)

Compound: CCCC[n+]1nn(CCCCCCn2n[n+](CCCC)c3c2C(=O)c2ccccc2C3=O)c2c1C(=O)c1ccccc1C2=O.O=S(=O)([O-])C(F)(F)F.O=S(=O)([O-])C(F)(F)F
- MIC [1]: > 250 µg/mL
- MIC [2]: 0.125 µg/mL
- MIC [7]: > 250 µg/mL
- Activity [8]: Non-Toxic
- MIC [3]: 16 µg/mL
- MIC [4]: > 250 µg/mL
- MIC [5]: 32 µg/mL
- IC50 [9]: 115 µg/mL
- MIC [10]: > 250 µg/mL
- MIC [6]: 250 µg/mL
- MIC [11]: 250 µg/mL

Compound: C[n+]1nn(CCCCCCn2n[n+](C)c3c2C(=O)c2ccccc2C3=O)c2c1C(=O)c1ccccc1C2=O.O=S(=O)([O-])C(F)(F)F.O=S(=O)([O-])C(F)(F)F
- MIC [1]: > 250 µg/mL
- MIC [12]: 125 µg/mL
- MIC [2]: 0.125 µg/mL
- MIC [7]: > 250 µg/mL
- Activity [8]: Toxic
- MIC [3]: 16 µg/mL
- MIC [4]: > 250 µg/mL
- MIC [13]: 62.5 µg/mL
- MIC [5]: 250 µg/mL
- IC50 [9]: 46.1 µg/mL
- MIC [10]: > 250 µg/mL
- MIC [6]: 250 µg/mL
- MIC [11]: > 250 µg/mL

Compound: CCCCCCCCS(=O)(=O)OC[C@H]1O[C@H](O[C@@H]2[C@@H](O)[C@H](O[C@H]3O[C@H](CN)[C@@H](O)[C@H](O)[C@H]3O)[C@@H](N)C[C@H]2N)[C@H](O)[C@@H](N)[C@@H]1O.Cl.Cl.Cl.Cl
- MIC [12]: 7.8 µg/mL
- MIC [7]: > 250 µg/mL
- MIC [10]: 15.6 µg/mL
- MIC [11]: 31.3 µg/mL

Compound: CC[n+]1nn(CCCCCCn2n[n+](CC)c3c2C(=O)c2ccccc2C3=O)c2c1C(=O)c1ccccc1C2=O.O=S(=O)([O-])C(F)(F)F.O=S(=O)([O-])C(F)(F)F
- MIC [1]: > 250 µg/mL
- MIC [2]: 0.125 µg/mL
- MIC [7]: > 250 µg/mL
- MIC [3]: 32 µg/mL
- MIC [4]: > 250 µg/mL
- MIC [5]: 250 µg/mL
- MIC [10]: > 250 µg/mL
- MIC [6]: 250 µg/mL
- MIC [11]: > 250 µg/mL

Compound: O=C1c2ccccc2C(=O)c2c1nnn2CCCCCCn1nnc2c1C(=O)c1ccccc1C2=O
- Activity [14]: inactive
- Activity [15]: inactive
- Activity [16]: inactive
- Activity [17]: inactive
- Activity [18]: inactive
- Activity [19]: inactive

Compound: CN[C@H](CC(C)C)C(=O)N[C@H]1C(=O)N[C@@H](CC(N)=O)C(=O)N[C@H]2C(=O)N[C@H]3C(=O)N[C@H](C(=O)N[C@H](C(=O)O)c4cc(O)cc(O)c4-c4cc3ccc4O)[C@H](O)c3ccc(c(Cl)c3)Oc3cc2cc(c3O[C@@H]2O[C@H](CO)[C@@H](O)[C@H](O)[C@H]2O[C@H]2C[C@](C)(N)[C@H](O)[C@H](C)O2)Oc2ccc(cc2Cl)[C@H]1O [VANCOMYCIN]
- MIC [1]: 2 to 4 µg/mL (≈ 1.38 to 2.76 µM)
- MIC [3]: 125 µg/mL (≈ 86.3 µM)
- MIC [4]: 64 to 125 µg/mL (≈ 44.2 to 86.3 µM)
- MIC [5]: > 250 µg/mL
- MIC [6]: > 250 µg/mL

Compound: CCCCCC[n+]1nn(CCCCCCn2n[n+](CCCCCC)c3c2C(=O)c2ccccc2C3=O)c2c1C(=O)c1ccccc1C2=O.O=S(=O)([O-])C(F)(F)F.O=S(=O)([O-])C(F)(F)F
- MIC [1]: 8 to 16 µg/mL
- MIC [12]: 125 µg/mL
- MIC [2]: 4 µg/mL
- MIC [7]: > 250 µg/mL
- Activity [8]: Non-Toxic
- MIC [3]: 4 µg/mL
- MIC [4]: 8 to 16 µg/mL
- MIC [13]: 15.6 µg/mL
- MIC [5]: 16 µg/mL
- IC50 [9]: 109 µg/mL
- MIC [10]: > 250 µg/mL
- MIC [6]: 250 µg/mL
- MIC [11]: 250 µg/mL

Compound: CCCCCCCCCC[n+]1nn(CCCCCCn2n[n+](CCCCCCCCCC)c3c2C(=O)c2ccccc2C3=O)c2c1C(=O)c1ccccc1C2=O.O=S(=O)([O-])C(F)(F)F.O=S(=O)([O-])C(F)(F)F
- MIC [1]: 4 to 8 µg/mL
- MIC [12]: 2 µg/mL
- Activity [20]: Active
- MIC [2]: 8 µg/mL
- MIC [7]: 7.81 µg/mL
- Activity [8]: Non-Toxic
- MIC [3]: 1 µg/mL
- MIC [4]: 4 to 8 µg/mL
- MIC [13]: 2 µg/mL
- MIC [5]: 4 µg/mL
- IC50 [9]: 68.4 µg/mL
- MIC [10]: 3.91 µg/mL
- Activity [21]: Active
- MIC [6]: 32 µg/mL
- MIC [11]: 3.91 µg/mL

Compound: CCCCCCCC[n+]1nn(CCCCCCn2n[n+](CCCCCCCC)c3c2C(=O)c2ccccc2C3=O)c2c1C(=O)c1ccccc1C2=O.O=S(=O)([O-])C(F)(F)F.O=S(=O)([O-])C(F)(F)F
- MIC [1]: 4 to 8 µg/mL
- MIC [12]: 3.9 µg/mL
- MIC [2]: 4 µg/mL
- MIC [7]: 15.6 µg/mL
- Activity [8]: Non-Toxic
- MIC [3]: 1 µg/mL
- MIC [4]: 2 to 4 µg/mL
- MIC [13]: 2 µg/mL
- MIC [5]: 4 µg/mL
- IC50 [9]: 74 µg/mL
- MIC [10]: 3.91 µg/mL
- MIC [6]: 16 µg/mL
- MIC [11]: 3.91 µg/mL

Compound: NC[C@H]1O[C@H](O[C@H]2[C@H](O)[C@@H](O[C@H]3O[C@H](CO)[C@@H](O)[C@H](N)[C@H]3O)[C@H](N)C[C@@H]2N)[C@H](O)[C@@H](O)[C@@H]1O [KANAMYCIN]
- MIC [1]: 125 to 250 µg/mL (≈ 258 to 516 µM)
- MIC [2]: 2 to 4 µg/mL (≈ 4.13 to 8.26 µM)
- MIC [3]: 250 µg/mL (≈ 516 µM)
- MIC [4]: 4 µg/mL (≈ 8.26 µM)
- MIC [5]: 125 µg/mL (≈ 258 µM)
- MIC [6]: 1 µg/mL (≈ 2.06 µM)

Compound: OC(Cn1cncn1)(Cn1cncn1)c1ccc(F)cc1F [FLUCONAZOLE]
- MIC [10]: 1.56 µg/mL (≈ 5.09 µM)
- MIC [11]: > 250 µg/mL
